Measured values reported in ChEMBL document CHEMBL5154732, “Discovery of indol-6-yl-pyrrolo[2,3-c]pyridin-7-one derivatives as bromodomain-containing protein 4 (BRD4) inhibitors for the treatment of kidney fibrosis” (Eur J Med Chem, 2022).
One block for each molecule: values may come before it.

Tests used:
[1] = biological target: Bromodomain-containing protein 4 (Homo sapiens, UniProt O60885); test: Inhibition of His-tagged […] recombinant BRD4 (unknown origin) (21 to 153 residues) using SGRGK(Ac)GGK(Ac)GLGK(Ac)GGAK(Ac)RHRK(Biotin)-OH as substrate measured after 1 hr by HTRF assay
[2] = Volume of distribution at steady state in ICR mouse at 2 mg/kg, iv measured at 0.083 to 24 hrs by LC-MS/MS analysis; assay type: ADME, organism-based; details: in vivo, time 0.083-24 hrs, read-out: Vdss
[3] = biological target: Bromodomain-containing protein 2 (Homo sapiens, UniProt P25440); test: Inhibition of His-tagged recombinant BRD2 (unknown origin) (11 to 162 residues) using SGRGK(Ac)GGK(Ac)GLGK(Ac)GGAK(Ac)RHRK(Biotin)-OH as substrate measured after 1 hr by HTRF assay
Chain of Bromodomain-containing protein 2 (P25440 whole entry, the tested form may be a part): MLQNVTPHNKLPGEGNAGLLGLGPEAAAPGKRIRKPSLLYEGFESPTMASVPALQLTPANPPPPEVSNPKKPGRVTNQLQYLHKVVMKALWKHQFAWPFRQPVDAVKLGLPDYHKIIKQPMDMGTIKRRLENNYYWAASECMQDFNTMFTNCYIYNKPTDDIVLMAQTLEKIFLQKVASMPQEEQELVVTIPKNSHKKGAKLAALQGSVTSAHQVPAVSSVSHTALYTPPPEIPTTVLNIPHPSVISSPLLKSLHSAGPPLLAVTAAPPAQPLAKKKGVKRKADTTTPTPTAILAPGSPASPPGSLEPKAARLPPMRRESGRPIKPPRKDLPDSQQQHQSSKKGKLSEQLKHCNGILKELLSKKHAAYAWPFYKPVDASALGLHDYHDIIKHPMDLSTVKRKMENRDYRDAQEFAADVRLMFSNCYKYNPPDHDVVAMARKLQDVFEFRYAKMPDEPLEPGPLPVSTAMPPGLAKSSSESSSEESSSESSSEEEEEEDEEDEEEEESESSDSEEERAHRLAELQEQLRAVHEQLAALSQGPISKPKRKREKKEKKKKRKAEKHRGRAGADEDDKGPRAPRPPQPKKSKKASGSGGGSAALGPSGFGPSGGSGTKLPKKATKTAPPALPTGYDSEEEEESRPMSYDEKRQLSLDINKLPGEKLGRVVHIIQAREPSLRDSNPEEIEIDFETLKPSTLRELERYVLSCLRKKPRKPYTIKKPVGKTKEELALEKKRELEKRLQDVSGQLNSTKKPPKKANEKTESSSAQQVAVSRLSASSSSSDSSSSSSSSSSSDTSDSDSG

[4] = biological target: Bromodomain-containing protein 3 (Homo sapiens, UniProt Q15059); test: Inhibition of His-tagged recombinant BRD3 (unknown origin) (11 to 166 residues) using SGRGK(Ac)GGK(Ac)GLGK(Ac)GGAK(Ac)RHRK(Biotin)-OH as substrate measured after 1 hr by HTRF assay
Chain of Bromodomain-containing protein 3 (Q15059 whole entry, the tested form may be a part): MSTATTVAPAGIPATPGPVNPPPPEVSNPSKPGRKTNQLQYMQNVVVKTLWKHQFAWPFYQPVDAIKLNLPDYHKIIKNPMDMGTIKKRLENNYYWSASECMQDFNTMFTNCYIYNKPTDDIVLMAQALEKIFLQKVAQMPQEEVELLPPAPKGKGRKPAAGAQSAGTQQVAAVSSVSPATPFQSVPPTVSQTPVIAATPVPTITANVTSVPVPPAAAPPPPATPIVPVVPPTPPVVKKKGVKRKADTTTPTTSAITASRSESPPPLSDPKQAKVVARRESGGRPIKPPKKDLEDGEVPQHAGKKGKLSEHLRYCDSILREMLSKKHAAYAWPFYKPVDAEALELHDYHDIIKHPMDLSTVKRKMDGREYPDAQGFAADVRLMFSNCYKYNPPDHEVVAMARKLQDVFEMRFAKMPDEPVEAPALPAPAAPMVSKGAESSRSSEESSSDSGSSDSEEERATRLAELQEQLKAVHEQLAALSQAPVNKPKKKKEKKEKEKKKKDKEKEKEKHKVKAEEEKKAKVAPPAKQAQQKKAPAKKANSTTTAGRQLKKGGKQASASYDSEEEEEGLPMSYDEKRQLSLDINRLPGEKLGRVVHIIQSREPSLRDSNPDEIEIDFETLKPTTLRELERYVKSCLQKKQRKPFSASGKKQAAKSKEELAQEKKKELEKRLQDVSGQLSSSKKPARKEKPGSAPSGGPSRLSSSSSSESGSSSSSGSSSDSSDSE

[5] = biological target: Bromodomain testis-specific protein (Homo sapiens, UniProt Q58F21); test: Inhibition of His-tagged recombinant BRDT (unknown origin) (21 to 153 residues) using SGRGK(Ac)GGK(Ac)GLGK(Ac)GGAK(Ac)RHRK(Biotin)-OH as substrate measured after 1 hr by HTRF assay
[6] = biological target: T1, Bromodomain and PHD finger-containing protein 3 (Homo sapiens, UniProt Q9ULD4); test: Inhibition of His-tagged recombinant BRPF3 (unknown origin) (11 to 188 residues) using SGRGK(Ac)GGK(Ac)GLGK(Ac)GGAK(Ac)RHRK(Biotin)-OH as substrate measured after 1 hr by HTRF assay
T1 sequence (Q9ULD4 whole entry): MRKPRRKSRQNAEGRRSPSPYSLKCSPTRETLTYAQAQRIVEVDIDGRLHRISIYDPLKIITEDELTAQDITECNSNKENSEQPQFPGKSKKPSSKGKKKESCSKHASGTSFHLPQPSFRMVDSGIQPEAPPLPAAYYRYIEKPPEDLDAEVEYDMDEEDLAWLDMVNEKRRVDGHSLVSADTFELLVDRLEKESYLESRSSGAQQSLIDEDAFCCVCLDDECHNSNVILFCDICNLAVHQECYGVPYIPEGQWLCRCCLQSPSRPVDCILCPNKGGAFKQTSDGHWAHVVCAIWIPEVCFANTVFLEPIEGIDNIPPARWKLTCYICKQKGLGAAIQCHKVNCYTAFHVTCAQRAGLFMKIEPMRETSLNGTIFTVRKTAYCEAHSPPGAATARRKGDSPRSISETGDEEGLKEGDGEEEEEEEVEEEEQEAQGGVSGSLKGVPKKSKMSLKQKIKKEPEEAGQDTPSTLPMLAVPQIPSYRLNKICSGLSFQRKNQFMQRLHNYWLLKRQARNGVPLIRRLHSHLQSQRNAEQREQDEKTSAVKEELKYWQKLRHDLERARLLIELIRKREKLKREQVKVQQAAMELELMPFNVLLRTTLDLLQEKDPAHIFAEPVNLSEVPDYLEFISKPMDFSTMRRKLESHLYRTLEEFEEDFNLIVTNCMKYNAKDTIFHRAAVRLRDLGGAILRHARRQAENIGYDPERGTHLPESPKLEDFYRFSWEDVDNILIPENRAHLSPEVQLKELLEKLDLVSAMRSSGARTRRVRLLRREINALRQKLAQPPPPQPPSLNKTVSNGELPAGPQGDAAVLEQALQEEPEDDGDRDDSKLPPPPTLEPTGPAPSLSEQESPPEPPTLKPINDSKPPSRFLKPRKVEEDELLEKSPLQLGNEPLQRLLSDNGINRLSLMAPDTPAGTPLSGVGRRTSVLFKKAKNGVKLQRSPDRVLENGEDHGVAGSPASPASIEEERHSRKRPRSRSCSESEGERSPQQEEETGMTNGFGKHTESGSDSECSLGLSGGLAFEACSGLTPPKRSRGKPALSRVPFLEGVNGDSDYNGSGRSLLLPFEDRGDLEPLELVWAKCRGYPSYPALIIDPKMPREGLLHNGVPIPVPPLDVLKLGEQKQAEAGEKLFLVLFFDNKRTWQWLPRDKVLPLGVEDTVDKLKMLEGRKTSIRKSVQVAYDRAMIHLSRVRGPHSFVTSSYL

[7] = biological target: T2, Bromodomain-containing protein 1 (Homo sapiens, UniProt O95696); test: Inhibition of His-tagged recombinant BRD1 (unknown origin) (11 to 190 residues) using SGRGK(Ac)GGK(Ac)GLGK(Ac)GGAK(Ac)RHRK(Biotin)-OH as substrate measured after 1 hr by HTRF assay
T2 sequence (O95696 whole entry): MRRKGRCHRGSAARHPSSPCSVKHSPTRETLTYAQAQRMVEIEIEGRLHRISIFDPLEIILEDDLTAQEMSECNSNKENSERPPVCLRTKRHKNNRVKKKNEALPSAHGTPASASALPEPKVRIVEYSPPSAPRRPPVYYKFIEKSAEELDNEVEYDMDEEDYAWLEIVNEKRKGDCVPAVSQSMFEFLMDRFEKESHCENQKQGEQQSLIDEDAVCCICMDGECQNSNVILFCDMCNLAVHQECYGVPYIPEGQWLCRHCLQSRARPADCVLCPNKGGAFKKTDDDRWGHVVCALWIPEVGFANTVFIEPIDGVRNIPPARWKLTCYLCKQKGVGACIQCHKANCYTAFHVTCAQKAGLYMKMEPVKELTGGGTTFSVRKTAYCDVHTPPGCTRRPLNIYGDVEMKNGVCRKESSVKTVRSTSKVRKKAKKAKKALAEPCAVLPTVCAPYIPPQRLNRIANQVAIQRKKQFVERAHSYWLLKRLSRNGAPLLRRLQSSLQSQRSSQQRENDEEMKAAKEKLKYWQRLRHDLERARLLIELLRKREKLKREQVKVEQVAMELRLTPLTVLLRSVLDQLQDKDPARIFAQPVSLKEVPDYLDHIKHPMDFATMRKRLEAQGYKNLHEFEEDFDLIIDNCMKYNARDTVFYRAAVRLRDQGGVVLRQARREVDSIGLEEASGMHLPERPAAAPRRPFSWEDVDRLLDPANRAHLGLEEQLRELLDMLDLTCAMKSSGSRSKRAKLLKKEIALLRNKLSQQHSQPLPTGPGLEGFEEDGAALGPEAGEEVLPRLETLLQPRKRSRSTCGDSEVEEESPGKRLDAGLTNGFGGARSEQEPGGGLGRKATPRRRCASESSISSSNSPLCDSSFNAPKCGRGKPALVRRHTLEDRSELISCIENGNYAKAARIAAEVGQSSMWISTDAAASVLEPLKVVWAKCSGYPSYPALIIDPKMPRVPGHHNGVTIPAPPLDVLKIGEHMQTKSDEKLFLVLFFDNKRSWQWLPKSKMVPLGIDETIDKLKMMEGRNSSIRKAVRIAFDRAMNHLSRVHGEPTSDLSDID

[8] = Clearance in ICR mouse at 2 mg/kg, iv measured at 0.083 to 24 hrs by LC-MS/MS analysis; assay type: ADME, organism-based; details: in vivo, time 0.083-24 hrs
[9] = Half life in ICR mouse at 30 mg/kg, po measured at 0.083 to 24 hrs by LC-MS/MS analysis; assay type: ADME, organism-based; details: in vivo, time 0.083-24 hrs
[10] = Tmax in ICR mouse at 30 mg/kg, po measured at 0.083 to 24 hrs by LC-MS/MS analysis; assay type: ADME, organism-based; details: in vivo, time 0.083-24 hrs
[11] = Cmax in ICR mouse at 30 mg/kg, po measured at 0.083 to 24 hrs by LC-MS/MS analysis; assay type: ADME, organism-based; design: time 0.083-24 hrs, dose 30 mg/kg, route po; details: in vivo
[12] = AUC (0 to t) in ICR mouse at 30 mg/kg, po measured at 0.083 to 24 hrs by LC-MS/MS analysis; assay type: ADME, organism-based; design: time lower 0.083 hrs, dose 30 mg/kg, time upper 24 hrs, route po; details: in vivo
[13] = AUC (0 to infinity) in ICR mouse at 30 mg/kg, po measured at 0.083 to 24 hrs by LC-MS/MS analysis; assay type: ADME, organism-based; design: time lower 0.083 hrs, dose 30 mg/kg, time upper 24 hrs, route po; details: in vivo
[14] = Oral bioavailability in ICR mouse at 30 mg/kg measured at 0.083 to 24 hrs by LC-MS/MS analysis; assay type: ADME, organism-based; details: in vivo, time 0.083-24 hrs
[15] = Toxicity in mouse assessed as effect on aspartate aminotransferase level in serum at 30 mg/kg/day; assay type: organism-based; details: in vivo
[16] = Toxicity in mouse assessed as effect on alanine aminotransferase level in serum at 30 mg/kg/day; assay type: organism-based; details: in vivo
[17] = Toxicity in mouse assessed as effect on serum creatinine level at 30 mg/kg/day; assay type: organism-based; details: in vivo
[18] = Toxicity in mouse assessed as effect on serum urea level at 30 mg/kg/day; assay type: organism-based; details: in vivo
[19] = Toxicity in mouse assessed as pathological changes in spleen at 30 mg/kg/day by H and E staining method; assay type: organism-based; details: in vivo
[20] = Toxicity in mouse assessed as pathological changes in heart at 30 mg/kg/day by H and E staining method; assay type: organism-based; details: in vivo
[21] = Toxicity in mouse assessed as pathological changes in lung at 30 mg/kg/day by H and E staining method; assay type: organism-based; details: in vivo
[22] = Toxicity in mouse assessed as pathological changes in liver at 30 mg/kg/day by H and E staining method; assay type: organism-based; details: in vivo

Structure (SMILES): Cc1noc(C)c1-c1ccc2ccn(Cc3cc(F)cc(F)c3)c2c1
IC50 [1]: > 3000 nM

Structure (SMILES): O=C1NC=C(c2ccc3ccn(Cc4ccc(F)cc4)c3c2)C2C=CNC12 (stereo not drawn)
IC50 [1]: 417 nM

Structure (SMILES): CCCC(C)n1ccc2ccc(-c3c(C)noc3C)cc21 (stereo not drawn)
IC50 [1]: 2440 nM

Structure (SMILES): COc1cc(Cn2ccc3ccc(C4=CNC(=O)C5NC=CC45)cc32)cc(OC)c1 (stereo not drawn)
IC50 [1]: 559 nM

Structure (SMILES): Cc1cn(Cc2cc(F)cc(F)c2)c2cc(C3=CN(C)C(=O)C4NC=CC34)ccc12 (stereo not drawn)
IC50 [1]: 419 nM

Structure (SMILES): CCC(C)n1ccc2ccc(-c3cn(C)c(=O)c4[nH]ccc34)cc21 (stereo not drawn)
IC50 [1]: 674 nM

Structure (SMILES): CCC(C)n1ccc2ccc(-c3c(C)noc3C)cc21 (stereo not drawn)
IC50 [1]: > 3000 nM

More lines, main results first:

IC50 [1]: > 3000 nM
Structure (SMILES): Cc1noc(C)c1-c1ccc2c(C)cn(Cc3cc(F)cc(F)c3)c2c1

Vd [2]: 2.08 L/kg | IC50 [1]: 107 nM | IC50 [3]: 718 nM | IC50 [4]: 502 nM | IC50 [5]: > 1000 nM | IC50 [6]: > 1000 nM | IC50 [7]: > 1000 nM | clearance [8]: 125 mL/min/kg | half-life [9]: 80.4 min | Tmax [10]: 11.4 min | Cmax [11]: 390 ng/mL | AUC(0-t) [12]: 319 ng·h/mL | AUC(0-inf) [13]: 323 ng·h/mL | bioavailability [14]: 7.91%
Structure (SMILES): Cn1cc(-c2ccc3ccn(Cc4ccccn4)c3c2)c2cc[nH]c2c1=O
Activity [15]: Non-Toxic | Activity [16]: Non-Toxic | Activity [17]: Non-Toxic | Activity [18]: Non-Toxic | Activity [19]: Non-Toxic | Activity [20]: Non-Toxic | Activity [21]: Non-Toxic | Activity [22]: Non-Toxic

IC50 [1]: 471 nM
Structure (SMILES): O=C1NC=C(c2ccc3ccn(Cc4ccccc4)c3c2)C2C=CNC12 (stereo not drawn)

IC50 [1]: 2650 nM
Structure (SMILES): Cc1noc(C)c1-c1ccc2ccn(Cc3ccccc3)c2c1

IC50 [1]: > 3000 nM
Structure (SMILES): Cc1noc(C)c1-c1ccc2ccn(Cc3ccc(F)cc3)c2c1
